The target in assay [1] is human 5-HT3 serotonin receptors (Homo sapiens (Human), UniProt P46098). Nature of the assay: [3H]BRL 43694 competition binding.
In assay [2] the target is human α7 nAChRs transiently expressed in Xenopus laevis oocytes (Homo sapiens (Human), UniProt P36544). Nature of the assay: Oocyte electrophysiology screen (TEVC). In kind it is cell-based. The note with it: 0.01 mM test compound, peak current relative to 0.2 mM ACh. In a few lines:
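Oocytes expressing human α7 were clamped at −80 mV by TEVC. After a 0.2 mM ACh control pulse, test compound was applied at 0.01 mM for 30 s. Agonist response is peak current as % of the ACh response, in triplicate.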

[3] abbreviates: CHO cell membranes, [3H]BRL 43694, Cheng Prusoff, read-out: h-5HT3 Ki.

Structures can show the parent of a compound that is named as a salt. Where two headings read alike, the source gives them in different places. Bounds are passed on as bounds.

By Ki is commonly meant a dissociation constant, usually derived from enzyme kinetics or from competition with a known ligand.

Chain of human α7 nAChRs transiently expressed in Xenopus laevis oocytes (P36544 23-502 limits assumed): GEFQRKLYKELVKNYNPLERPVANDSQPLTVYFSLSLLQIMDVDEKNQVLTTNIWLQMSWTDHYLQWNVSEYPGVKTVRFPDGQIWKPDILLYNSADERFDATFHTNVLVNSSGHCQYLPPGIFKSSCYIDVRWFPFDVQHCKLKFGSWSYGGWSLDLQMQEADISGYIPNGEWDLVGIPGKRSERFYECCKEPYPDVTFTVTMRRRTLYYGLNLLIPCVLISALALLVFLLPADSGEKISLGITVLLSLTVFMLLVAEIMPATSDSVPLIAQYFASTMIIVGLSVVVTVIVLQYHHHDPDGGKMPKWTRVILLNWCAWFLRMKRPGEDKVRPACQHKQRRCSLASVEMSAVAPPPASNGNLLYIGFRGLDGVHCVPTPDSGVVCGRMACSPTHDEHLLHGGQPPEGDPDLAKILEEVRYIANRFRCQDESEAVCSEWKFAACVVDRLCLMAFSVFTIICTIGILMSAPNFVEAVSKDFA
Chain of human 5-HT3 serotonin receptors (P46098 24-478): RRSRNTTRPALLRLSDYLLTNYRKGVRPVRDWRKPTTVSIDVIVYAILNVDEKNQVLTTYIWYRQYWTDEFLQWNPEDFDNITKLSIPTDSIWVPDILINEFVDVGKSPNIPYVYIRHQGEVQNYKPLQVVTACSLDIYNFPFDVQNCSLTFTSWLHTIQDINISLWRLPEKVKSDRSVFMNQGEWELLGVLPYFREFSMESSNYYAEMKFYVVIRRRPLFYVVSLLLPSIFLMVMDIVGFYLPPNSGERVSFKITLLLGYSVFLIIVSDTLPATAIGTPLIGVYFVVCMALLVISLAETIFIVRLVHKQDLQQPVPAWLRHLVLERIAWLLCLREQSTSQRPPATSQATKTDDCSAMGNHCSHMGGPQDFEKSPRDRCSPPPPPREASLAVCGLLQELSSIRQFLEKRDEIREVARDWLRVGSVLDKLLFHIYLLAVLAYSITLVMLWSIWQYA

As for `CC1(C)[C@H](NC(=O)c2ccc3ccsc3c2)C2CCN1CC2` [(R)-5, (R)—N-(2,2-dimethylquinuclidin-3-yl)benzo[b]thiophene-6-carboxamide hydrochloride], the Ki in assay [1] (setting [3]) came to 1.9 µM. For the same compound, in assay [2], the “% ACh @ 10 μM Oocyte” value is reported as 282 % ACh.

With `CC1(C)[C@H](NC(=O)c2cc3cc(C(F)(F)F)ccc3s2)C2CCN1CC2` [(R)-17, (R)—N-(2,2-dimethylquinuclidin-3-yl)-5-(trifluoromethyl)benzo[b]thiophene-2-carboxamide hydrochloride], the Ki in assay [1] (setting [3]) was above 10 µM. Further, the “% ACh @ 10 μM Oocyte” value in assay [2] turned out to be 0 % ACh.

For the compound `CC1(C)[C@H](NC(=O)c2cc3ccc(C(F)(F)F)cc3s2)C2CCN1CC2` [(R)-10, (R)—N-(2,2-dimethylquinuclidin-3-yl)-6-(trifluoromethyl)benzo[b]thiophene-2-carboxamide hydrochloride], the Ki in assay [1] (setting [3]) was above 10 µM. In addition, the “% ACh @ 10 μM Oocyte” value in assay [2] is given as 1 % ACh.

Consider `Cc1csc2ccc(C(=O)N[C@@H]3C4CCN(CC4)C34CC4)cc12` [(R)-77, (R)-3-methyl-N-(1′-azaspiro[cyclopropane-1,2′-bicyclo[2.2.2]octan]-3′-yl)benzo[b]thiophene-5-carboxamide hydrochloride], for which the Ki in assay [1] (setting [3]) worked out at 0.66 µM. In assay [2], the “% ACh @ 10 μM Oocyte” value is 547 % ACh.

In the case of `CC1(C)[C@H](NC(=O)c2cc3cc(C4CC4)ccc3s2)C2CCN1CC2` [(R)-19, (R)-5-cyclopropyl-N-(2,2-dimethylquinuclidin-3-yl)benzo[b]thiophene-2-carboxamide hydrochloride], the Ki in assay [1] (setting [3]) was determined as 1.6 µM. Further, the “% ACh @ 10 μM Oocyte” value in assay [2] is given as 149 % ACh.

For the compound `O=C(NC1C2CCN(CC2)C12CC2)c1cc2cccc(Cl)c2s1` (single isomer, unassigned; enantiomer1) [56a, 7-chloro-N-(1′-azaspiro[cyclopropane-1,2′-bicyclo[2.2.2]octan]-3′-yl)benzo[b]thiophene-2-carboxamide-enantiomer1], in assay [1], the Ki was determined as 0.048 µM. Also, the “% ACh @ 10 μM Oocyte” value in assay [2] is recorded as 1231 % ACh.

As for `O=C(N[C@@H]1C2CCN(CC2)C12CC2)c1cc2ccc(C3CC3)c(F)c2s1` [(R)-159, (R)-6-cyclopropyl-7-fluoro-N-(1′-azaspiro[cyclopropane-1,2′-bicyclo[2.2.2]octan]-3′-yl)benzo[b]thiophene-2-carboxamide hydrochloride], the Ki in assay [1] (setting [3]) was above 10 µM. For the same compound, the “% ACh @ 10 μM Oocyte” value in assay [2] was 24 % ACh.

Regarding `O=C(N[C@@H]1C2CCN(CC2)C12CC2)c1cc2ccc(Cl)cc2o1` [(R)-163, (R)-6-chloro-N-(1′-azaspiro[cyclopropane-1,2′-bicyclo[2.2.2]octan]-3′-yl)benzofuran-2-carboxamide hydrochloride], the Ki in assay [1] (setting [3]) is 2 µM. For the same compound, the “% ACh @ 10 μM Oocyte” value in assay [2] is on record as 446 % ACh.

Turning to `CC1(C)[C@H](NC(=O)c2ccc3sccc3c2)C2CCN1CC2` [(R)-30, (R)—N-(2,2-dimethylquinuclidin-3-yl)benzo[b]thiophene-5-carboxamide hydrochloride], the Ki in assay [1] (setting [3]) stood at 2.3 µM. In addition, the “% ACh @ 10 μM Oocyte” value in assay [2] stood at 396 % ACh.

`O=C(N[C@@H]1C2CCN(CC2)C12CC2)c1ccc2occ(Cl)c2c1` [(R)-94, (R)-3-chloro-N-(1′-azaspiro[cyclopropane-1,2′-bicyclo[2.2.2]octan]-3′-yl)benzofuran-5-carboxamide hydrochloride]: in assay [1] (setting [3]), the Ki was 1.6 µM. Further, in assay [2], the “% ACh @ 10 μM Oocyte” value turned out to be 812 % ACh.

In the case of `O=C(NC1C2CCN(CC2)C12CC2)c1ccc2ccsc2c1` (single isomer, unassigned; enantiomer1) [58a, N-(1′-azaspiro[cyclopropane-1,2′-bicyclo[2.2.2]octan]-3′-yl)benzo[b]thiophene-6-carboxamide-enantiomer1], the Ki in assay [1] (setting [3]) was 0.91 µM. Also, the “% ACh @ 10 μM Oocyte” value in assay [2] is 235 % ACh.

Regarding `O=C(N[C@@H]1C2CCN(CC2)C12CC2)c1ccc2cc[nH]c2c1` [(R)-79, (R)—N-(1′-azaspiro[cyclopropane-1,2′-bicyclo[2.2.2]octan]-3′-yl)-1H-indole-6-carboxamide], the Ki in assay [1] (setting [3]) came to 0.75 µM. Further, the “% ACh @ 10 μM Oocyte” value in assay [2] stood at 758 % ACh.

`O=C(N[C@@H]1C2CCN(CC2)C12CC2)c1ccc2c(c1)OCCO2` [(R)-107, (R)—N-(1′-azaspiro[cyclopropane-1,2′-bicyclo[2.2.2]octan]-3′-yl)-2,3-dihydrobenzo[b][1,4]dioxine-6-carboxamide hydrochloride]: the Ki in assay [1] (setting [3]) is above 10 µM. For the same compound, the “% ACh @ 10 μM Oocyte” value in assay [2] was determined as 414 % ACh.

Turning to `Cc1nc2cc(C(=O)N[C@@H]3C4CCN(CC4)C34CC4)ccc2o1` [(R)-85, (R)-2-methyl-N-(1′-azaspiro[cyclopropane-1,2′-bicyclo[2.2.2]octan]-3′-yl)benzo[d]oxazole-5-carboxamide], the Ki in assay [1] (setting [3]) is above 10 µM. Besides, the “% ACh @ 10 μM Oocyte” value in assay [2] came to 188 % ACh.

`O=C(N[C@@H]1C2CCN(CC2)C12CC2)c1cc2ccc(N3CCOCC3)cc2s1` [(R)-99, (R)-6-morpholino-N-(1′-azaspiro[cyclopropane-1,2′-bicyclo[2.2.2]octan]-3′-yl)benzo[b]thiophene-2-carboxamide hydrochloride]: the Ki in assay [1] (setting [3]) was above 10 µM. Besides, in assay [2], the “% ACh @ 10 μM Oocyte” value is given as 1 % ACh.

As to `Cc1ccc2cc(C(=O)N[C@@H]3C4CCN(CC4)C3(C)C)sc2c1Cl` [(R)-52, (R)-7-chloro-N-(2,2-dimethylquinuclidin-3-yl)-6-methylbenzo[b]thiophene-2-carboxamide hydrochloride], the Ki in assay [1] (setting [3]) amounted to 0.64 µM. Moreover, the “% ACh @ 10 μM Oocyte” value in assay [2] is recorded as 844 % ACh.

In the case of `O=C(NC1C2CCN(CC2)C12CC2)c1cc2ccc(F)cc2s1` (single isomer, unassigned; enantiomer1) [61a, 6-fluoro-N-(1′-azaspiro[cyclopropane-1,2′-bicyclo[2.2.2]octan]-3′-yl)benzo[b]thiophene-2-carboxamide-enantiomer1], in assay [1] (setting [3]), the Ki turned out to be 1.5 µM. The “% ACh @ 10 μM Oocyte” value in assay [2] turned out to be 1493 % ACh.

With `CC1(C)[C@H](NC(=O)c2cc3ccc(Cl)c(Cl)c3s2)C2CCN1CC2` [(R)-109, (R)-6,7-dichloro-N-(2,2-dimethylquinuclidin-3-yl)benzo[b]thiophene-2-carboxamide hydrochloride], in assay [1] (setting [3]), the Ki was 4 µM. Further, in assay [2], the “% ACh @ 10 μM Oocyte” value was determined as 432 % ACh.

Take `CC1(C)[C@H](NC(=O)c2cnc3occc3c2)C2CCN1CC2` [(R)-36, (R)—N-(2,2-dimethylquinuclidin-3-yl)furo[2,3-b]pyridine-5-carboxamide hydrochloride]: in assay [1] (setting [3]), the Ki is above 10 µM. Besides, the “% ACh @ 10 μM Oocyte” value in assay [2] is 1 % ACh.

`CC1(C)[C@H](NC(=O)c2cc3ccc(Cl)c(F)c3s2)C2CCN1CC2` [(R)-110, (R)-6-chloro-N-(2,2-dimethylquinuclidin-3-yl)-7-fluorobenzo[b]thiophene-2-carboxamide hydrochloride]: the Ki in assay [1] (setting [3]) is above 10 µM. In addition, the “% ACh @ 10 μM Oocyte” value in assay [2] was found to be 444 % ACh.

Take `COc1ccc2cc(C(=O)N[C@@H]3C4CCN(CC4)C34CC4)sc2c1F` [(R)-155, (R)-7-fluoro-6-methoxy-N-(1′-azaspiro[cyclopropane-1,2′-bicyclo[2.2.2]octan]-3′-yl)benzo[b]thiophene-2-carboxamide hydrochloride]: the Ki in assay [1] (setting [3]) is above 10 µM. In assay [2], the “% ACh @ 10 μM Oocyte” value was determined as 513 % ACh.

Regarding `O=C(N[C@@H]1C2CCN(CC2)C12CC2)c1cc2ccc(Br)cc2s1` [(R)-101, (R)-6-bromo-N-(1′-azaspiro[cyclopropane-1,2′-bicyclo[2.2.2]octan]-3′-yl)benzo[b]thiophene-2-carboxamide hydrochloride], the Ki in assay [1] (setting [3]) is above 10 µM. In assay [2], the “% ACh @ 10 μM Oocyte” value came out at 412 % ACh.

Regarding `CC1(C)[C@H](NC(=O)c2cc3ccc(S(C)(=O)=O)cc3s2)C2CCN1CC2` [(R)-48, (R)—N-(2,2-dimethylquinuclidin-3-yl)-6-(methylsulfonyl)benzo[b]thiophene-2-carboxamide hydrochloride], the Ki in assay [1] (setting [3]) was above 10 µM. In addition, the “% ACh @ 10 μM Oocyte” value in assay [2] is recorded as 0 % ACh.

Turning to `O=C(N[C@@H]1C2CCN(CC2)C12CC2)c1cc2ccc(Cl)c(Cl)c2s1` [(R)-150, (R)-6,7-dichloro-N-(1′-azaspiro[cyclopropane-1,2′-bicyclo[2.2.2]octan]-3′-yl)benzo[b]thiophene-2-carboxamide hydrochloride], the Ki in assay [1] (setting [3]) is 2.2 µM. In addition, the “% ACh @ 10 μM Oocyte” value in assay [2] came to 443 % ACh.

Take `CC1(C)[C@H](NC(=O)c2cc3cc(Cl)c(Cl)cc3s2)C2CCN1CC2` [(R)-14, (R)-5,6-dichloro-N-(2,2-dimethylquinuclidin-3-yl)benzo[b]thiophene-2-carboxamide hydrochloride]: in assay [1] (setting [3]), the Ki is above 10 µM. In addition, the “% ACh @ 10 μM Oocyte” value in assay [2] turned out to be 3 % ACh.

As to `CC(C)Oc1cccc2cc(C(=O)N[C@@H]3C4CCN(CC4)C34CC4)sc12` [(R)-191, (R)-7-isopropoxy-N-(1′-azaspiro[cyclopropane-1,2′-bicyclo[2.2.2]octan]-3′-yl)benzo[b]thiophene-2-carboxamide hydrochloride], the Ki in assay [1] (setting [3]) stood at 0.16 µM.

In the case of `COc1cc2sc(C(=O)N[C@@H]3C4CCN(CC4)C34CC4)cc2cc1F` [(R)-173, (R)-5-fluoro-6-methoxy-N-(1′-azaspiro[cyclopropane-1,2′-bicyclo[2.2.2]octan]-3′-yl)benzo[b]thiophene-2-carboxamide hydrochloride], in assay [1] (setting [3]), the Ki is above 10 µM.

With `CCOc1cccc2cc(C(=O)N[C@@H]3C4CCN(CC4)C34CC4)sc12` [(R)-190, (R)-7-ethoxy-N-(1′-azaspiro[cyclopropane-1,2′-bicyclo[2.2.2]octan]-3′-yl)benzo[b]thiophene-2-carboxamide hydrochloride], the Ki in assay [1] (setting [3]) amounted to 0.29 µM.

In the case of `O=C(N[C@@H]1C2CCN(CC2)C12CC2)c1cc2ccc3c(c2s1)OCCC3` [(R)-201, (R)—N-(1′-azaspiro[cyclopropane-1,2′-bicyclo[2.2.2]octan]-3′-yl)-3,4-dihydro-2H-thieno[3,2-h]chromene-8-carboxamide hydrochloride], the Ki in assay [1] (setting [3]) worked out at 3.6 µM.

For the origin of these results see patent US10183938B2, “Geminal substituted quinuclidine amide compounds as agonists of α-7 nicotonic acetylcholine receptors” (AXOVANT SCIENCES GMBH, priority 2014, dated 2019).
